These results are taken from ChEMBL document CHEMBL4673372, “1,2,3-triazole-thiazole hybrids: Synthesis, in vitro antimicrobial activity and antibiofilm studies” (Bioorg Med Chem Lett, 2021).

Values after ≈ are worked out from the molar mass of the structure shown.

In general, IC50 refers to the concentration needed to halve the response being measured. In general, MIC refers to the lowest concentration found to suppress growth. For orientation: MBC means the smallest concentration meeting the test's criterion for killing. As a reminder, the MFC is the lowest tested concentration that kills the fungus rather than only halting it. The low end stands for more potent killing, the high end for less potent killing.

Experiment [1] has as its system Escherichia coli. Put plainly: Inhibition of biofilm formation in Escherichia coli MTCC 739 incubated for 24 hrs by crystal violet staining based microtiter plate method. The experiment is classed as functional, organism-based.
The test system of experiment [2] is Staphylococcus aureus. Put plainly: Antibacterial activity against Staphylococcus aureus MLS16 MTCC 2940 assessed as inhibition of bacterial growth by microtiter broth dilution method. In kind it is functional. (In general: Dilution methods test growth across graded concentrations, often in twofold steps.)
The subject of experiment [3] is Raoultella planticola. As to the kind of experiment: Bactericidal activity against Klebsiella planticola MTCC 530. The experiment is classed as functional.
Experiment [4] has as its system Bacillus subtilis. Put plainly: Antibacterial activity against Bacillus subtilis MTCC 121 assessed as inhibition of bacterial growth by microtiter broth dilution method. The experiment is classed as functional.
Experiment [5] deals with Raoultella planticola. As to the kind of experiment: Antibacterial activity against Klebsiella planticola MTCC 530 assessed as inhibition of bacterial growth by microtiter broth dilution method. The experiment is classed as functional.
Experiment [6] relates to Micrococcus luteus. Put plainly: Antibacterial activity against Micrococcus luteus MTCC 2470 assessed as inhibition of bacterial growth by microtiter broth dilution method. The experiment is classed as functional.
Experiment [7] has as its system Micrococcus luteus. As to the kind of experiment: Bactericidal activity against Micrococcus luteus MTCC 2470. In kind it is functional.
Experiment [8] deals with Pseudomonas aeruginosa. As to the kind of experiment: Inhibition of biofilm formation in Pseudomonas aeruginosa MTCC 2453 incubated for 24 hrs by crystal violet staining based microtiter plate method. The experiment is classed as functional, organism-based.
Experiment [9] relates to Staphylococcus aureus. As to the kind of experiment: Bactericidal activity against Staphylococcus aureus MLS16 MTCC 2940. The experiment is classed as functional.
Experiment [10] deals with Pseudomonas aeruginosa. Put plainly: Antibacterial activity against Pseudomonas aeruginosa MTCC 2453 assessed as inhibition of bacterial growth by microtiter broth dilution method. In kind it is functional.
Experiment [11] concerns Pseudomonas aeruginosa. Put plainly: Bactericidal activity against Pseudomonas aeruginosa MTCC 2453. The experiment is classed as functional.
The subject of experiment [12] is Candida albicans. Put plainly: Inhibition of biofilm formation in Candida albicans MTCC 3017 incubated for 24 hrs by crystal violet staining based microtiter plate method. In kind it is functional, organism-based.
Experiment [13] has as its system Escherichia coli. As to the kind of experiment: Antibacterial activity against Escherichia coli MTCC 739 assessed as inhibition of bacterial growth by microtiter broth dilution method. In kind it is functional.
Experiment [14] relates to Bacillus subtilis. As to the kind of experiment: Bactericidal activity against Bacillus subtilis MTCC 121. In kind it is functional.
Experiment [15] has as its system Raoultella planticola. Put plainly: Inhibition of biofilm formation in Klebsiella planticola MTCC 530 incubated for 24 hrs by crystal violet staining based microtiter plate method. In kind it is functional, organism-based.
The subject of experiment [16] is Staphylococcus aureus. As to the kind of experiment: Bactericidal activity against Staphylococcus aureus MTCC 96. In kind it is functional.
Experiment [17] concerns Staphylococcus aureus. Put plainly: Antibacterial activity against Staphylococcus aureus MTCC 96 assessed as inhibition of bacterial growth by microtiter broth dilution method. In kind it is functional.
Experiment [18] relates to Escherichia coli. As to the kind of experiment: Bactericidal activity against Escherichia coli MTCC 739. The experiment is classed as functional.
For experiment [19], the system named is Micrococcus luteus. Put plainly: Inhibition of biofilm formation in Micrococcus luteus MTCC 2470 incubated for 24 hrs by crystal violet staining based microtiter plate method. The experiment is classed as functional, organism-based.
Experiment [20] relates to Bacillus subtilis. Put plainly: Inhibition of biofilm formation in Bacillus subtilis MTCC 121 incubated for 24 hrs by crystal violet staining based microtiter plate method. The experiment is classed as functional, organism-based.
In experiment [21] the test system is Staphylococcus aureus. Put plainly: Inhibition of biofilm formation in Staphylococcus aureus MLS16 MTCC 2940 incubated for 24 hrs by crystal violet staining based microtiter plate method. The experiment is classed as functional, organism-based.
The subject of experiment [22] is Staphylococcus aureus. As to the kind of experiment: Inhibition of biofilm formation in Staphylococcus aureus […] incubated for 24 hrs by crystal violet staining based microtiter plate method. In kind it is functional, organism-based.
For experiment [23], the system named is Pichia kudriavzevii. Put plainly: Antifungal activity against Candida krusei MTCC 3020. The experiment is classed as functional.
Experiment [24] deals with Nakaseomyces glabratus. As to the kind of experiment: Antifungal activity against Candida glabrata MTCC 3019. In kind it is functional.
The subject of experiment [25] is Candida albicans. As to the kind of experiment: Antifungal activity against Candida albicans MTCC 4748. In kind it is functional.
For experiment [26], the system named is Candida albicans. Put plainly: Antifungal activity against Candida albicans MTCC 3018. The experiment is classed as functional.
The subject of experiment [27] is Candida albicans. As to the kind of experiment: Antifungal activity against Candida albicans MTCC 227. The experiment is classed as functional.
The test system of experiment [28] is Candida albicans. Put plainly: Antifungal activity against Candida albicans MTCC 1637. In kind it is functional.
Experiment [29] relates to Candida albicans. As to the kind of experiment: Antifungal activity against Candida albicans MTCC 854. In kind it is functional.
Experiment [30] relates to [Candida] aaseri. As to the kind of experiment: Antifungal activity against Candida aaseri MTCC 1962. To be noted: Yamadazyma aaseri. In kind it is functional.
Experiment [31] deals with Candida parapsilosis. As to the kind of experiment: Antifungal activity against Candida parapsilosis MTCC 1745. In kind it is functional. To be noted: Lodderomyces parapsilosis.
The subject of experiment [32] is Candida albicans. As to the kind of experiment: Fungicidal activity against Candida albicans MTCC 183. The experiment is classed as functional.
Experiment [33] deals with Candida albicans. As to the kind of experiment: Antifungal activity against Candida albicans MTCC 183. The experiment is classed as functional.
In experiment [34] the test system is Pichia sporocuriosa. As to the kind of experiment: Antifungal activity against Issatchenkia hanoiensis MTCC 4755. The experiment is classed as functional.
Experiment [35] deals with Candida albicans. Put plainly: Antifungal activity against Candida albicans MTCC 3958. In kind it is functional.
The mark [36] stands for this setting: Pseudomonas aeruginosa, MTCC 2453, 24 h, read-out: IC50.

Take `O=C(O)c1cn(C2CC2)c2cc(N3CCNCC3)c(F)cc2c1=O` [CIPROFLOXACIN]: the IC50 in [1] (Escherichia coli, MTCC 739, 24 h, read-out: IC50) is 0.6 µM; in experiment [8] (setting [36]), 0.5 µM; in experiment [12], “Not Active”; in experiment [15] (Klebsiella planticola, MTCC 530, 24 h, read-out: IC50), 0.8 µM. The MIC in [2], in experiment [4], in [5], in [6], in [10] and in experiment [13] was 2.7 µM (≈ 0.895 µg/mL) in each case. Further, the MIC in [17] was found to be 2.7 µM (≈ 0.895 µg/mL). In addition, the MBC in experiment [3], in experiment [7], in experiment [9], in experiment [11], in experiment [14] and in experiment [16] was 2.7 µM (≈ 0.895 µg/mL) in each case. Moreover, the MBC in experiment [18] is 2.7 µM (≈ 0.895 µg/mL).
For the compound `COc1ccc(-n2cc(COc3ccc(/C=N/Nc4nc(-c5cc6cc(Br)cc(Br)c6oc5=O)cs4)cc3)nn2)cc1`, the IC50 in experiment [19] (Micrococcus luteus, MTCC 2470, 24 h, read-out: IC50) was 45.1 µM; in [1] it was “Not Active”; in experiment [20] (Bacillus subtilis, MTCC 121, 24 h, read-out: IC50), 42.6 µM; in experiment [21], “Not Active”; in experiment [22] it was “Not Active”; in [8] (setting [36]) it was 110 µM. For the same compound, the IC50 entry in experiment [12] and in [15] was “Not Active” each time. The MIC in experiment [2] is > 176 µM; in [4], 5.5 µM (≈ 3.9 µg/mL); in experiment [5], > 176 µM; in [6], 5.5 µM (≈ 3.9 µg/mL); in [10] it was > 176 µM; in [13], 5.5 µM (≈ 3.9 µg/mL). Moreover, in experiment [17], the MIC was > 176 µM. The MBC in experiment [7], in [14] and in experiment [18] was 11 µM (≈ 7.79 µg/mL) throughout.
`COc1ccc(-n2cc(COc3ccc(/C=N/Nc4nc(-c5cc6cc([N+](=O)[O-])cc([N+](=O)[O-])c6oc5=O)cs4)cc3)nn2)cc1`: the IC50 entry in experiment [19], in experiment [1], in experiment [20], in experiment [21], in experiment [22] and in [8] was “Not Active” each time. Also, the IC50 result in experiment [12] and in experiment [15] was “Not Active” throughout. Also, the MIC in experiment [2], in [4], in experiment [5], in [23], in experiment [24] and in [25] was > 195 µM each time. For the same compound, the MIC in experiment [6], in experiment [26], in experiment [27], in experiment [28], in experiment [10] and in experiment [29] was > 195 µM in each case. Further, the MIC was > 195 µM in experiment [30]; > 195 µM in experiment [13]; > 195 µM in experiment [31]; 6.1 µM (≈ 3.91 µg/mL) in experiment [33]; > 195 µM in experiment [34]; > 195 µM in experiment [17]. The MIC in experiment [35] is > 195 µM. Further, the MFC in [32] and in experiment [33] was 12.2 µM (≈ 7.82 µg/mL) each time.
